Measurements taken from US10597378B2 (priority 2017, dated 2020).

Tested on: mice
Assay: Conditioned place preference (CPP) test, reinstatement of morphine CPP
Conditions: challenge on reinstatement day (Day 21)

Molecule	reinstatement of morphine CPP
CN1CC[C@]23c4c5ccc(O)c4O[C@H]2[C@@H](O)C=C[C@H]3[C@H]1C5.Cl [morphine, Morphine hydrochloride, reference compound]	induced reinstatement of morphine CPP

Target: MOR (Homo sapiens, UniProt P35372)
Assay: cell-based
Parameters: expressed in transfected cells; host or cells: CHO-K1/MOR/Ga15 cells
Conditions: CHO-K1/MOR/Ga15 cells; read-out: FLIPR Ca2+ EC50
Experimental: In an exemplary in vitro assay for identifying MOR agonists, cells that express a MOR are treated with a test compound in a cellular calcium fluorescent assay and calcium fluorescence intensity is then measured to determine whether the MOR is activated. A test compound is identified as a MOR agonist if the MOR is activated.
EC50 herein refers to the concentration of a compound that induces a response halfway between the baseline and the maximum after a specified exposure time. AUC refers to the area under the response curve, an indication of the compound's capability of activating a MOR.
One day before the assay, CORNING® black with clear flat bottom 96-well assay plates were coated with a 0.1 mg/mL Poly-L-Lysine solution. CHO-K1/MOR/Ga15 cells were suspended in the F12 medium and plated at a density of about 8×10^4 cells/well in […] medium. Cells were incubated in a humidified atmosphere of 10% CO2 at 37° C. overnight so as to reach an 80-90% confluent cell monolayer before the assay. On the day of the assay, 150 μL medium/well was removed from plate. […] Compounds and other reagents were dissolved in the assay buffer. […] The [Ca^2+]i fluorescence was measured up to 90 s after agonist injection.

Sequence of MOR (P35372 whole entry): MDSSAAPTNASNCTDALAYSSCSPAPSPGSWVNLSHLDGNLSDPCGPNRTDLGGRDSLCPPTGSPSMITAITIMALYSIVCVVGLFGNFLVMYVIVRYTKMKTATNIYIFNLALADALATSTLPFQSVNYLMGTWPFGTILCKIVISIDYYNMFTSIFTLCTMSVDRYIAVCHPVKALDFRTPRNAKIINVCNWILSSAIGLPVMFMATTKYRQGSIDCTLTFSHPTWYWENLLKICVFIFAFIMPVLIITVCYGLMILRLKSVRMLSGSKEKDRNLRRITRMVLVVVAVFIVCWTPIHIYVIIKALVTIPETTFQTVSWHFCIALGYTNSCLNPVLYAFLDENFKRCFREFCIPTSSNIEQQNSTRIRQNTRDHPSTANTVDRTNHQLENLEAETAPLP

Molecule	EC50
O=C(NCC1NCCc2ccccc21)C1CCCC1 (centres unmarked) [Compound 43, N-(1,2,3,4-Tetrahydro-1-isoquinolinylmethyl)cyclopentanecarboxamide]	8910 nM
O=C(NCC1NCCc2ccccc21)C1CCC1 (centres unmarked) [Compound 44, N-(1,2,3,4-Tetrahydro-1-isoquinolinylmethyl)cyclobutanecarboxamide]	6800 nM
O=C(NCC1NCCc2ccccc21)c1ccccc1 (centres unmarked) [Compound 45, N-(1,2,3,4-Tetrahydro-1-isoquinolinylmethyl)benzamide]	750 nM
COc1cccc(C(=O)NCC2NCCc3ccccc32)c1 (centres unmarked) [Compound 51, 3-Methoxy-N-(1,2,3,4-tetrahydro-1-isoquinolinylmethyl)benzamide]	860 nM
O=C(NCC1NCCc2ccccc21)c1cccc(F)c1 (centres unmarked) [Compound 52, 3-Fluoro-N-(1,2,3,4-tetrahydro-1-isoquinolinylmethyl)benzamide]	780 nM
O=C(NCC1NCCc2ccccc21)c1cccc(Cl)c1 (centres unmarked) [Compound 53, 3-Chloro-N-(1,2,3,4-tetrahydro-1-isoquinolinylmethyl)benzamide]	380 nM
COc1ccccc1C(=O)NCC1NCCc2ccccc21 (centres unmarked) [Compound 55, 2-Methoxy-N-(1,2,3,4-tetrahydro-1-isoquinolinylmethyl)benzamide]	3310 nM
O=C(NCC1NCCc2ccccc21)c1ccccc1OC(F)(F)F (centres unmarked) [Compound 56, N-(1,2,3,4-Tetrahydro-1-isoquinolinylmethyl)-2-(trifluoromethoxy)benzamide]	3310 nM
O=C(NCC1NCCc2ccccc21)c1ccccc1F (centres unmarked) [Compound 57, 2-Fluoro-N-(1,2,3,4-tetrahydro-1-isoquinolinylmethyl)benzamide]	3280 nM
Cc1ccc(C(=O)NCC2NCCc3ccccc32)c(C)c1 (centres unmarked) [Compound 60, 2,4-Dimethyl-N-(1,2,3,4-tetrahydro-1-isoquinolinylmethyl)benzamide]	660 nM
Cc1ccc(C(=O)NCC2c3ccccc3CCN2C)cc1 (centres unmarked) [Compound 61, 4-Methyl-N-[(2-methyl-1,2,3,4-tetrahydro-1-isoquinolinyl)methyl]benzamide]	40 nM
CCCCN1CCc2ccccc2C1CNC(=O)c1ccc(C)cc1 (centres unmarked) [Compound 62, N-[(2-Butyl-1,2,3,4-tetrahydro-1-isoquinolinyl)methyl]-4-methylbenzamide]	160 nM
Cc1ccc(C(=O)NCC2c3ccccc3CCN2CC(C)C)cc1 (centres unmarked) [Compound 63, 4-Methyl-N-{[2-(2-methylpropyl)-1,2,3,4-tetrahydro-1-isoquinolinyl]methyl}benzamide]	110 nM
Cc1ccc(C(=O)NCC2c3ccccc3CCN2CCCl)cc1 (centres unmarked) [Compound 64, N-{[2-(2-Chloroethyl)-1,2,3,4-tetrahydro-1-isoquinolinyl]methyl}-4-methylbenzamide]	30 nM
CCc1ccc(C(=O)NCC2c3ccccc3CCN2C)cc1 (centres unmarked) [Compound 65, 4-Ethyl-N-[(2-methyl-1,2,3,4-tetrahydro-1-isoquinolinyl)methyl]benzamide]	10 nM
Cc1ccc(C(=O)NCC2c3ccccc3CCN2C)cc1C (centres unmarked) [Compound 66, 3,4-Dimethyl-N-[(2-methyl-1,2,3,4-tetrahydro-1-isoquinolinyl)methyl]benzamide]	10 nM

Same assay, conditions: area under the [Ca2+]i fluorescence response curve, up to 90 s

Molecule	FLIPR Ca2+ AUC
O=C(NCC1NCCc2ccccc21)C1CCCC1 (centres unmarked) [Compound 43, N-(1,2,3,4-Tetrahydro-1-isoquinolinylmethyl)cyclopentanecarboxamide]	5768
O=C(NCC1NCCc2ccccc21)C1CCC1 (centres unmarked) [Compound 44, N-(1,2,3,4-Tetrahydro-1-isoquinolinylmethyl)cyclobutanecarboxamide]	3646
O=C(NCC1NCCc2ccccc21)c1ccccc1 (centres unmarked) [Compound 45, N-(1,2,3,4-Tetrahydro-1-isoquinolinylmethyl)benzamide]	8628
COc1cccc(C(=O)NCC2NCCc3ccccc32)c1 (centres unmarked) [Compound 51, 3-Methoxy-N-(1,2,3,4-tetrahydro-1-isoquinolinylmethyl)benzamide]	13302
O=C(NCC1NCCc2ccccc21)c1cccc(F)c1 (centres unmarked) [Compound 52, 3-Fluoro-N-(1,2,3,4-tetrahydro-1-isoquinolinylmethyl)benzamide]	11425
O=C(NCC1NCCc2ccccc21)c1cccc(Cl)c1 (centres unmarked) [Compound 53, 3-Chloro-N-(1,2,3,4-tetrahydro-1-isoquinolinylmethyl)benzamide]	13149
COc1ccccc1C(=O)NCC1NCCc2ccccc21 (centres unmarked) [Compound 55, 2-Methoxy-N-(1,2,3,4-tetrahydro-1-isoquinolinylmethyl)benzamide]	4312
O=C(NCC1NCCc2ccccc21)c1ccccc1OC(F)(F)F (centres unmarked) [Compound 56, N-(1,2,3,4-Tetrahydro-1-isoquinolinylmethyl)-2-(trifluoromethoxy)benzamide]	7855
O=C(NCC1NCCc2ccccc21)c1ccccc1F (centres unmarked) [Compound 57, 2-Fluoro-N-(1,2,3,4-tetrahydro-1-isoquinolinylmethyl)benzamide]	12102
Cc1ccc(C(=O)NCC2NCCc3ccccc32)c(C)c1 (centres unmarked) [Compound 60, 2,4-Dimethyl-N-(1,2,3,4-tetrahydro-1-isoquinolinylmethyl)benzamide]	13375
Cc1ccc(C(=O)NCC2c3ccccc3CCN2C)cc1 (centres unmarked) [Compound 61, 4-Methyl-N-[(2-methyl-1,2,3,4-tetrahydro-1-isoquinolinyl)methyl]benzamide]	14757
CCCCN1CCc2ccccc2C1CNC(=O)c1ccc(C)cc1 (centres unmarked) [Compound 62, N-[(2-Butyl-1,2,3,4-tetrahydro-1-isoquinolinyl)methyl]-4-methylbenzamide]	14669
Cc1ccc(C(=O)NCC2c3ccccc3CCN2CC(C)C)cc1 (centres unmarked) [Compound 63, 4-Methyl-N-{[2-(2-methylpropyl)-1,2,3,4-tetrahydro-1-isoquinolinyl]methyl}benzamide]	18418
CCc1ccc(C(=O)NCC2c3ccccc3CCN2C)cc1 (centres unmarked) [Compound 65, 4-Ethyl-N-[(2-methyl-1,2,3,4-tetrahydro-1-isoquinolinyl)methyl]benzamide]	18367
Cc1ccc(C(=O)NCC2c3ccccc3CCN2C)cc1C (centres unmarked) [Compound 66, 3,4-Dimethyl-N-[(2-methyl-1,2,3,4-tetrahydro-1-isoquinolinyl)methyl]benzamide]	17393

Same assay, conditions: read-out: FLIPR Ca2+ EC50

Molecule	EC50
COc1ccc(C(=O)NCC2NCCc3ccccc32)cc1 (centres unmarked) [Compound 46, 4-Methoxy-N-(1,2,3,4-tetrahydro-1-isoquinolinylmethyl)benzamide]	370 nM
O=C(NCC1NCCc2ccccc21)c1ccc(OC(F)(F)F)cc1 (centres unmarked) [Compound 47, N-(1,2,3,4-Tetrahydro-1-isoquinolinylmethyl)-4-(trifluoromethoxy)benzamide]	370 nM
O=C(NCC1NCCc2ccccc21)c1ccc(F)cc1 (centres unmarked) [Compound 48, 4-Fluoro-N-(1,2,3,4-tetrahydro-1-isoquinolinylmethyl)benzamide]	540 nM
O=C(NCC1NCCc2ccccc21)c1ccc(Cl)cc1 (centres unmarked) [Compound 49, 4-Chloro-N-(1,2,3,4-tetrahydro-1-isoquinolinylmethyl)benzamide]	230 nM
CCc1ccc(C(=O)NCC2NCCc3ccccc32)cc1 (centres unmarked) [Compound 50, 4-Ethyl-N-(1,2,3,4-tetrahydro-1-isoquinolinylmethyl)benzamide]	60 nM
Cc1cccc(C(=O)NCC2NCCc3ccccc32)c1 (centres unmarked) [Compound 54, 3-Methyl-N-(1,2,3,4-tetrahydro-1-isoquinolinylmethyl)benzamide]	370 nM
Cc1ccc(C(=O)NCC2NCCc3ccccc32)cc1C (centres unmarked) [Compound 58, 3,4-Dimethyl-N-(1,2,3,4-tetrahydro-1-isoquinolinylmethyl)benzamide]	120 nM
O=C(NCC1NCCc2ccccc21)c1ccc(Cl)c(Cl)c1 (centres unmarked) [Compound 59, 3,4-Dichloro-N-(1,2,3,4-tetrahydro-1-isoquinolinylmethyl)benzamide]	250 nM

Target: T1, human mu-opioid receptor (Homo sapiens, UniProt P35372)
T1 construct: expressed in transfected cells; host or cells: HEK-293 (HEK-MOR), kept under G418
T1 sequence (P35372 whole entry): as above
Assay: cell-based
Assay type: cell-based
Conditions: not given
Experimental: Cells (72,000 per well) were plated in 100 μl/well of DMEM in 96-well solid-bottom white plates (GIBCO) and 50 μl/well of drug in HBSS in the presence of forskolin and 3-isobutyl-1-methylxanthine at final concentrations of 1 μM and 500 μM, respectively. After 30 min of incubation at room temperature, the concentration of cyclic adenosine monophosphate was determined using a LANCE Ultra cAMP Assay kit (PerkinElmer).
As MOR belongs to the GPCR family, activation of MOR leads to a decrease in intracellular cAMP level.

Molecule	cAMP production
[Met5]enkephalin [Met-5, reference compound]	significantly decreased cAMP production

Tested on: wild-type C57BL/6 (B6) mice
Assay: Tail flick test (acute thermal pain)
Assay type: in vivo, mouse
Conditions: equi-antinociceptive doses, B6 mice

Molecule	time at which analgesic effects were exerted after acute injection
CN1CC[C@]23c4c5ccc(O)c4O[C@H]2[C@@H](O)C=C[C@H]3[C@H]1C5.Cl [morphine, Morphine hydrochloride, reference compound]	20 min

Tested on: B6 mice
Assay: Respiratory function test
Conditions: acute, equi-antinociceptive doses

Molecule	respiratory amplitude (tidal volume)
CN1CC[C@]23c4c5ccc(O)c4O[C@H]2[C@@H](O)C=C[C@H]3[C@H]1C5.Cl [morphine, Morphine hydrochloride, reference compound]	significantly reduced respiratory amplitude (tidal volume) at 10 to 20 min

Same assay, conditions: acute, equi-antinociceptive doses, 10-60 min

Molecule	respiratory frequency
CN1CC[C@]23c4c5ccc(O)c4O[C@H]2[C@@H](O)C=C[C@H]3[C@H]1C5.Cl [morphine, Morphine hydrochloride, reference compound]	marked respiratory depression at 10 min and keep falling of respiratory frequency going through 60 min

Tested on: B6 mice
Assay: Cardiovascular function test (tail cuff plethysmography)
Conditions: acute, equi-antinociceptive doses

Molecule	blood pressure	heart rate (pulse)	rate-pressure product
CN1CC[C@]23c4c5ccc(O)c4O[C@H]2[C@@H](O)C=C[C@H]3[C@H]1C5.Cl [morphine, Morphine hydrochloride, reference compound]	non-significant effect on blood pressure	reduced from 10 to 30 min	reduced from 10 to 20 min
